Calls of active or inactive are those of the source. The rule behind the calls is not given here.

For series [1], the system named is Splenocyte. In words: Antiinflammatory activity against LPS-stimulated splenocytes isolated from thioglycolate-stimulated C57BL/6 mouse at 10 uM after 24 hrs by ELISA relative to control. The series is classed as functional, cell-based.
Series [2] is described as follows: Cytotoxicity against splenocytes isolated from thioglycolate-stimulated C57BL/6 mouse at 10 uM after 2 hrs by MTT assay. The following applies: splenocyte. It is filed as cell-based.
In series [3] the test system is RAW264.7. The experiment in a line: Antiinflammatory activity against LPS-stimulated […] at 10 uM after 24 hrs by ELISA relative to control. It is filed as functional. The following applies: RAW264.7, 24 h.
Series [4] can be described thus: Toxicity in LPS-stimulated splenocytes isolated from thioglycolate-stimulated C57BL/6 mouse assessed as decrease in live cells at 10 uM after 24 hrs using propidium iodide-staining by FACS analysis. The following applies: splenocyte. It is filed as cell-based.
For series [5], the system named is RAW264.7. In words: Cytotoxicity against […] assessed as effect on cell viability at 10 uM after 2 hrs by MTT assay. It is filed as cell-based. The settings on record: raw264.7, 2 h.
The nature of series [6]: Toxicity in LPS-stimulated splenocytes isolated from thioglycolate-stimulated C57BL/6 mouse assessed as decrease in live cells at 10 uM after 48 hrs using propidium iodide-staining by FACS analysis. It is filed as cell-based. The settings on record: splenocyte.
In series [7] the test system is RAW264.7. The experiment in a line: Cytotoxicity against […] assessed as effect on cell viability at 100 uM after 2 hrs by MTT assay. The series is classed as cell-based. The following applies: raw264.7, 2 h.
A short description of series [8]: Cytotoxicity against LPS-stimulated splenocytes isolated from thioglycolate-stimulated C57BL/6 mouse assessed as alterations in forward and side scattering distribution for splenocytes using propidium iodide-staining after 24 hrs by FACS analysis. The settings on record: splenocyte. It is filed as cell-based.
Series [9] can be described thus: Toxicity in LPS-stimulated splenocytes cells isolated from thioglycolate-stimulated C57BL/6 mouse assessed as decrease in live cells at 100 uM after 48 hrs using propidium iodide-staining by FACS analysis. It is filed as cell-based. The following applies: splenocyte.
The subject of series [10] is RAW264.7. In words: Antiinflammatory activity against LPS-stimulated […] at 100 uM after 24 hrs by ELISA relative to control. It is filed as functional. The settings on record: RAW264.7, 24 h.
Series [11] deals with Disintegrin and metalloproteinase domain-containing protein 17 (Homo sapiens) (UniProt P78536). The experiment in a line: Inhibition of recombinant TACE using Mca-P-L-A-Q-A-V-Dpa-R-S-S-S-R-NH2 as substrate at 1 to 100 uM after 3 hrs by fluorescence assay.
Series [12] is described as follows: Antiinflammatory activity against LPS-stimulated splenocytes cells isolated from thioglycolate-stimulated C57BL/6 mouse assessed as reduction of TNFalpha mRNA level at 100 to 200 uM after 24 hrs by RT-PCR. It is filed as functional, Splenocyte.
Series [13] in a line: Cytotoxicity against splenocytes isolated from thioglycolate-stimulated C57BL/6 mouse at 10 to 100 uM after 2 hrs by MTT assay. It is filed as cell-based. The settings on record: splenocyte.
Series [14] has as its system Splenocyte. The experiment in a line: Antiinflammatory activity against LPS-stimulated splenocytes isolated from thioglycolate-stimulated C57BL/6 mouse at 10 to 100 uM after 24 hrs by ELISA relative to control. It is filed as functional, cell-based.
A short description of series [15]: Cytotoxicity against LPS-stimulated splenocytes isolated from thioglycolate-stimulated C57BL/6 mouse assessed as alterations in forward and side scattering distribution for splenocytes using propidium iodide-staining after 48 hrs by FACS analysis. The series is classed as cell-based. The settings on record: splenocyte.
Series [16] is described as follows: Toxicity in LPS-stimulated splenocytes cells isolated from thioglycolate-stimulated C57BL/6 mouse assessed as decrease in live cells at 100 uM after 24 hrs using propidium iodide-staining by FACS analysis. The series is classed as cell-based. The settings on record: splenocyte.
Series [17] has as its system RAW264.7. In words: Toxicity in LPS-stimulated […] assessed as decrease in live cells at 100 uM using propidium iodide-staining by FACS analysis. It is filed as cell-based. The following applies: raw264.7, 100 µM.

Chain of Disintegrin and metalloproteinase domain-containing protein 17 (Homo sapiens) (P78536 whole entry, the tested form may be a part): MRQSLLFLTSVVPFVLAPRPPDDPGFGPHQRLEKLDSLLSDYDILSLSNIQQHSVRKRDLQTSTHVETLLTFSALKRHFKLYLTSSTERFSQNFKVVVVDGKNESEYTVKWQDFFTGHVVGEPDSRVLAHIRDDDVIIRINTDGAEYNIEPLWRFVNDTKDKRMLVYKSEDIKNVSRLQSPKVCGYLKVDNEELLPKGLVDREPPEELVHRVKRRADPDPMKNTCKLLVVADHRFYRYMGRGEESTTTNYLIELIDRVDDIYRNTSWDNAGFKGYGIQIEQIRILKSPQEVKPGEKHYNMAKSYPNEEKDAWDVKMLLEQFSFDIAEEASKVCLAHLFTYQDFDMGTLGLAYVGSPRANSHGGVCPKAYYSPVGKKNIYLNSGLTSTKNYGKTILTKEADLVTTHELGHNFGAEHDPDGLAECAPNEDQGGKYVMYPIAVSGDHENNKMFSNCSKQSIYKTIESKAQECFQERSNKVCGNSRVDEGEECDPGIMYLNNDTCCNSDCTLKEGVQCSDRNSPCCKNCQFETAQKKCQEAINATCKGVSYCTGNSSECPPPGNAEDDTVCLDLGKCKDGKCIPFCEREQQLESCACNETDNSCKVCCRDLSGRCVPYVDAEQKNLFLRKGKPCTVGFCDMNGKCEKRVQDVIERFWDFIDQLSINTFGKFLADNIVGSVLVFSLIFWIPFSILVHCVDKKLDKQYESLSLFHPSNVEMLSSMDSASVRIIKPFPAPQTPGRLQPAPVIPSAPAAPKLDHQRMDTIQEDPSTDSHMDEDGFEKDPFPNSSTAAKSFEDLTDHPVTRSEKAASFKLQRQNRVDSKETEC

Turning to `CCCC1O[C@@H]2C[C@H]3[C@@H]4CCC5=CC(=O)C=C[C@]5(C)[C@H]4[C@@H](O)C[C@]3(C)[C@]2(C(=O)CO)O1` (stereo not given in full) [BUDESONIDE], the inhibition result with Splenocyte [1] was “Active”. The Activity result in [2] is given as “Non-toxic”; in [4], “Toxic”; with RAW264.7 [5] it was “Non-toxic”; in series [6], “Toxic”. In the series with RAW264.7 [3], the inhibition at 10 µM amounted to 60%.

For `O=C(NCCN1CCCCC1)P(=O)(O)O`, the Activity result (in the series with RAW264.7 [7]; in [8]; in series [9]; in [13]; in [15]; in series [16]) was “Non-toxic” in each case. Moreover, the Activity result in the series on RAW264.7 [17] is given as “Non-toxic”. Further, in the series with RAW264.7 [10], the inhibition at 100 µM was determined as 60%. Further, the inhibition result (in [11]; in the series on Splenocyte [14]) was “Active” in each case. Moreover, the “inhibition (INH)” value in series [12] was determined as 30%.

Regarding `O=C(NCCN1CCCC1)P(=O)(O)O`, the inhibition result in the series with Splenocyte [1] and in the series on Splenocyte [14] was “Active” in each case. Besides, the Activity entry (with RAW264.7 [7]; in series [8]; in series [9]; in [13]; in series [15]; in series [16]) was “Non-toxic” throughout. The Activity entry in the series on RAW264.7 [17] is “Non-toxic”. Besides, the inhibition at 100 µM with RAW264.7 [10] was 60%. In addition, the inhibition entry in [11] was “inactive”. The “inhibition (INH)” value in series [12] is reported as 30%.

As to `N[C@H]1CCCC[C@H]1NC(=O)P(=O)(O)O` (relative stereo), the Activity result (in the series on RAW264.7 [7]; in series [8]; in series [9]; in series [13]; in series [15]; in [16]) was “Non-toxic” throughout. Moreover, the Activity entry with RAW264.7 [17] is “Non-toxic”. This molecule also registered an inhibition at 100 µM with RAW264.7 [10] of 60%. Further, the inhibition entry in series [11] is “inactive”. The “inhibition (INH)” value in series [12] worked out at 30%. In addition, in the series with Splenocyte [14], the inhibition result was “Active”.

Source of the values: ChEMBL document CHEMBL1799958, “Aminoalkylcarbamoylphosphonates reduce TNFα release from activated immune cells” (Bioorg Med Chem Lett, 2010).
